Consider 18 compounds from PMC5755735, “Discovery of indolylpiperazinylpyrimidines with dual-target profiles at adenosine A2A and dopamine D2 receptors for Parkinson's disease treatment” (PLoS ONE, 2018).

The target in assay [1] is T1, human A1 receptors expressed in CHO cells (Homo sapiens, UniProt P30542).
T1 sequence (P30542 1-326): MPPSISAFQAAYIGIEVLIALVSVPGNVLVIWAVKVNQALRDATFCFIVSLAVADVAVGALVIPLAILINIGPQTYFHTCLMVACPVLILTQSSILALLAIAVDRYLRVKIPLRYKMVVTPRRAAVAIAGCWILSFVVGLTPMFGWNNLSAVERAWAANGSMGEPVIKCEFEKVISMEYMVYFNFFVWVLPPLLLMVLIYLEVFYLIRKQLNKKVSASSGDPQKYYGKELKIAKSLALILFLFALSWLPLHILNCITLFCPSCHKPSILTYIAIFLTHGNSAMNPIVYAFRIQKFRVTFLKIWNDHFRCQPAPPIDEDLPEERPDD
Kind of assay: competition binding at human A1 adenosine receptors ([3H]CCPA displacement). Conditions: displacement of [3H]CCPA, 95% confidence limits, n = 3–6, read-out: Ki hA1. Here is the method:
(§1) A two-step procedure was adopted to prepare membrane for radioligand binding from cells stably transfected with human adenosine receptor subtypes (hA1, hA2A and hA3 expressed on CHO cells). Firstly, cell fragments and nuclei were removed by using low-speed centrifugation (1,000 g for 10 min). After that, crude membrane fraction from supernatant was then sedimented at 100,000 g for 30 min. The membrane pellet was subsequently re-suspended in the specific binding buffer, frozen in liquid nitrogen and stored at -80°C. For measurement of adenylyl cyclase activity in the hA2B receptors, one-step centrifugation procedure was used; the homogenate was sedimented for 30 min at 54,000 g. The so-obtained crude membrane pellet was re-suspended in 50 mM Tris/HCl, pH 7.4 and used for the adenylyl cyclase assay immediately.
(§2) Non-specific binding was determined using theophylline 1 mM. […] Non-specific binding was determined using N^6-R-phenylisopropyl adenosine (R-PIA) 100 μM. ^41 The binding of [^3H]HEMADO to CHO cells transfected with hA3 adenosine receptors was carried out as described earlier. […] Non-specific binding was determined using R-PIA 100 μM.
(§3) The assay mixture was then filtered through the built-in filter at the bottom of the 96-well microplate filtration system (Millipore Multiscreen MAFC) and washed three times with 200 μL of cold buffer. After addition of 20 μL of scintillator to the dried filter plates, the filter bound radioactivity was counted on a Wallac Micro-Beta counter. All Ki values were calculated by non-linear curve fitting with the program SCTFIT [45].
In general terms: In a radioligand displacement assay an active substance lowers the binding of a labelled ligand.

Assay [2] deals with human A2A receptors expressed in CHO cells (Homo sapiens, UniProt P29274). The experiment in a line: competition binding at human A2A adenosine receptors ([3H]NECA displacement). The conditions noted are these: for Ki: displacement of [3H]NECA, CHO cells, 95% confidence limits, n = 3–6, read-out: Ki hA2A; for hA1/hA2A / hA3/hA2A: selectivity ratio of Ki values. The protocol: as §1, §2, §3
Sequence of human A2A receptors expressed in CHO cells (P29274 whole entry): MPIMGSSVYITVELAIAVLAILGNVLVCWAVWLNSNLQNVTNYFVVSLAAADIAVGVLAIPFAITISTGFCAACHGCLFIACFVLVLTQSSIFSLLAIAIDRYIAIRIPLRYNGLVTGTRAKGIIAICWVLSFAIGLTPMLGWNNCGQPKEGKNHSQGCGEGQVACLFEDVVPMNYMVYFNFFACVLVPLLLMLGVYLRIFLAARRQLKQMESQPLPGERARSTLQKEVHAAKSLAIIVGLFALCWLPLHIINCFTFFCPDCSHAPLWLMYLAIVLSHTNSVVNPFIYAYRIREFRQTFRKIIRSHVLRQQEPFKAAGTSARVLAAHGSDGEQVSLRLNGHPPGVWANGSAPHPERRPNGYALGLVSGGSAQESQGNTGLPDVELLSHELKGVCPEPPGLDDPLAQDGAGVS

For assay [3], the target named is T2, human A3 receptors expressed in CHO cells (Homo sapiens, UniProt P0DMS8).
T2 sequence (P0DMS8 1-318): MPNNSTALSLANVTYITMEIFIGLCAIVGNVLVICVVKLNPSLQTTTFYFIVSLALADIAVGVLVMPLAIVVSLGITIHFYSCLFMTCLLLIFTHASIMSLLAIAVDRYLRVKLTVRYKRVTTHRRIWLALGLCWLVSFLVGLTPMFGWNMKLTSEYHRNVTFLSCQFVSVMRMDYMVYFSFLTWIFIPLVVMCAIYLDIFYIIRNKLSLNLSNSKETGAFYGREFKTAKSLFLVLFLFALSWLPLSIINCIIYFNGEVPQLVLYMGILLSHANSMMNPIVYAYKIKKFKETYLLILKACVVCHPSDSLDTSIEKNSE
Kind of assay: competition binding at human A3 adenosine receptors ([3H]HEMADO displacement). Conditions: displacement of [3H]HEMADO, 95% confidence limits, n = 3–6, read-out: Ki hA3. Here is the method:
as §1, §2, §3

Assay [4] deals with T3, human A2B receptors expressed in CHO cells (Homo sapiens, UniProt P29275).
T3 sequence (P29275 1-332): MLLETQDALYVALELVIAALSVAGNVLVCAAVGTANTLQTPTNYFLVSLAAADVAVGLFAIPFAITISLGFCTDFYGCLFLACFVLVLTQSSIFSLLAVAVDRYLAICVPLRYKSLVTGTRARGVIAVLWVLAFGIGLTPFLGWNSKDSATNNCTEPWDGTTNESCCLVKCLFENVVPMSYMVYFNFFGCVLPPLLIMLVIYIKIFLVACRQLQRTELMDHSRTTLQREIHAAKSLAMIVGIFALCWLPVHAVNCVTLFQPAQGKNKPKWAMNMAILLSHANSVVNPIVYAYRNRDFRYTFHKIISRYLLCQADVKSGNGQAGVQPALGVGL
Kind of assay: inhibition of NECA-stimulated adenylyl cyclase activity at hA2B.
Description: The membranes were incubated with about 150,000 cpm of [α-^32P]adenosine triphosphate ([α-^32P]ATP) and test compounds in different concentrations for 20 min. A non-linear regression analysis was applied to calculate the IC50 of the adenylyl cyclase activity assay. From the IC50 values, Ki values were then calculated using the Cheng and Prusoff equation [46].

The Ki is a measure of affinity in units of concentration, obtained from inhibition or displacement.

For the compound `Cc1cc(C)nc(N2CCN(CCc3c(C)[nH]c4ccccc34)CC2)n1` [Compound 10, 3‐{2‐[4‐(4,6‐Dimethylpyrimidin‐2‐yl)piperazin‐1‐yl]ethyl}‐2‐methyl‐1H‐indole], the Ki in assay [1] is above 100 µM; in assay [2], 34.4 µM; in assay [3], 39.8 µM; in assay [4] it was above 20 µM. Moreover, in assay [2], the hA1/hA2A is above 3. Moreover, the hA3/hA2A in assay [2] is given as 1.16.

Turning to `Cc1cc(C)nc(N2CCN(C(=O)c3cc4cccc([N+](=O)[O-])c4[nH]3)CC2)n1` [Compound 25, {2‐[4‐(4,6‐Dimethylpyrimidin‐2‐yl)piperazine‐1‐carbonyl]‐1H‐indol‐7‐yl}azinic acid], the Ki in assay [1] was 4.82 µM; in assay [2] it was 29.7 µM; in assay [3], above 30 µM; in assay [4] it was above 20 µM. Moreover, the hA1/hA2A in assay [2] was found to be 0.16. In assay [2], the hA3/hA2A is above 1.

As for `Cc1cc(C)nc(N2CCN(C(=O)Cc3c(C)[nH]c4ccc(F)cc34)CC2)n1` [Compound 15, 1‐[4‐(4,6‐Dimethylpyrimidin‐2‐yl)piperazin‐1‐yl]‐2‐(5‐fluoro‐2‐methyl‐1H‐indol‐3‐yl)ethan‐1‐one], the Ki in assay [1] was above 100 µM; in assay [2], 18.2 µM; in assay [3], above 30 µM; in assay [4], above 20 µM. Further, the hA1/hA2A in assay [2] is above 6. Also, the hA3/hA2A in assay [2] was above 2.

Turning to `Cc1cc(C)nc(N2CCN(CCCc3c[nH]c4ccccc34)CC2)n1` [Compound 11, 3‐{3‐[4‐(4,6‐Dimethylpyrimidin‐2‐yl)piperazin‐1‐yl]propyl}‐1H‐indole], the values for the Ki in assay [2] and in assay [4] were above 100 µM and above 20 µM, respectively.

For the compound `Cc1cc(C)nc(N2CCN(C(=O)c3c[nH]c4ccc(Cl)cc34)CC2)n1` [Compound 16, 5‐Chloro‐3‐[4‐(4,6‐dimethylpyrimidin‐2‐yl)piperazine‐1‐carbonyl]‐1H‐indole], the Ki in assay [1] is above 100 µM; in assay [2], 15.5 µM; in assay [3], 19.5 µM; in assay [4] it was above 20 µM. In addition, in assay [2], the hA1/hA2A is reported as above 7. Further, the hA3/hA2A in assay [2] amounted to 1.26.

As to `Cc1ccc2[nH]c(C(=O)N3CCN(c4nc(C)cc(C)n4)CC3)cc2c1` [Compound 23, 2‐[4‐(4,6‐Dimethylpyrimidin‐2‐yl)piperazine‐1‐carbonyl]‐5‐methyl‐1H‐indole], the Ki is above 100 µM in assay [1], above 100 µM in assay [2], above 100 µM in assay [3] and above 20 µM in assay [4].

For `COc1ccc2[nH]cc(C(=O)N3CCN(c4nc(C)cc(C)n4)CC3)c2c1` [Compound 14, 3‐[4‐(4,6‐Dimethylpyrimidin‐2‐yl)piperazine‐1‐carbonyl]‐5‐methoxy‐1H‐indole], the Ki was above 100 µM in assay [1], 12.7 µM in assay [2], above 30 µM in assay [3] and above 20 µM in assay [4]. In addition, in assay [2], the hA1/hA2A is recorded as above 8. Also, in assay [2], the hA3/hA2A is listed as above 2.

As for `COc1ccc2[nH]c(C(=O)N3CCN(c4nc(C)cc(C)n4)CC3)cc2c1` [Compound 24, 2‐[4‐(4,6‐Dimethylpyrimidin‐2‐yl)piperazine‐1‐carbonyl]‐5‐methoxy‐1H‐indole], the Ki is above 30 µM in assay [1], above 30 µM in assay [2], above 30 µM in assay [3] and above 20 µM in assay [4].

Turning to `COc1cccc2[nH]cc(C(=O)N3CCN(c4nc(C)cc(C)n4)CC3)c12` [Compound 13, 3‐[4‐(4,6‐Dimethylpyrimidin‐2‐yl)piperazine‐1‐carbonyl]‐4‐methoxy‐1H‐indole], the Ki was above 100 µM in assay [1], 18.8 µM in assay [2], above 30 µM in assay [3] and above 20 µM in assay [4]. The hA1/hA2A in assay [2] was above 5. Besides, the hA3/hA2A in assay [2] was above 2.

For `Cc1cc(C)nc(N2CCN(C(=O)c3cc4ccccc4[nH]3)CC2)n1` [Compound 21, 2‐[4‐(4,6‐Dimethylpyrimidin‐2‐yl)piperazine‐1‐carbonyl]‐1H‐indole], the Ki in assay [1] is above 100 µM; in assay [2], above 100 µM; in assay [3] it was above 100 µM; in assay [4] it was above 20 µM.

As for `Cc1cc(C)nc(N2CCN(CCCCc3c[nH]c4ccccc34)CC2)n1` [Compound 12, 3‐{4‐[4‐(4,6‐Dimethylpyrimidin‐2‐yl)piperazin‐1‐yl]butyl}‐1H‐indole], the Ki was above 100 µM in assay [2] and above 20 µM in assay [4].

For the compound `Cc1cc(C)nc(N2CCN(C(=O)CCc3c[nH]c4ccccc34)CC2)n1` [Compound 7, 1‐[4‐(4,6‐Dimethylpyrimidin‐2‐yl)piperazin‐1‐yl]‐3‐(1H‐indol‐3-yl)propan‐1‐one], the Ki in assay [2] was above 100 µM; in assay [4] it was above 20 µM.

For `Cc1cc(C)nc(N2CCN(Cc3c[nH]c4ccccc34)CC2)n1` [Compound 9, 3‐{[4‐(4,6‐Dimethylpyrimidin‐2‐yl)piperazin‐1‐yl]methyl}‐1H‐indole], the Ki is above 100 µM in assay [1], above 30 µM in assay [2], above 30 µM in assay [3] and above 20 µM in assay [4].

Turning to `Cc1cc(C)nc(N2CCN(C(=O)Cc3c[nH]c4ccccc34)CC2)n1` [Compound 18, 1‐[4‐(4,6‐Dimethylpyrimidin‐2‐yl)piperazin‐1‐yl]‐2‐(1H‐indol‐3‐yl)ethan‐1‐one], the Ki in assay [1] is above 100 µM; in assay [2], 27.6 µM; in assay [3], above 30 µM; in assay [4] it was above 20 µM. The hA1/hA2A in assay [2] is above 4. Besides, in assay [2], the hA3/hA2A is above 1. In addition, the “fold decrease in hA2A affinity” value in assay [2] (versus compound 6) worked out at 3.2 fold.

As to `Cc1cc(C)nc(N2CCN(C(=O)c3cc4cc(F)ccc4[nH]3)CC2)n1` [Compound 22, 2‐[4‐(4,6‐Dimethylpyrimidin‐2‐yl)piperazine‐1‐carbonyl]‐5‐fluoro‐1H‐indole], the Ki in assay [1] was above 100 µM; in assay [2], above 100 µM; in assay [3], above 100 µM; in assay [4], above 20 µM.

Consider `COc1cccc2c(C(=O)N3CCN(c4nc(C)cc(C)n4)CC3)c[nH]c12` [Compound 20, 3‐[4‐(4,6‐Dimethylpyrimidin‐2‐yl)piperazine‐1‐carbonyl]‐7‐methoxy‐1H‐indole], for which the Ki in assay [1] is above 100 µM; in assay [2] it was 3.63 µM; in assay [3], above 30 µM; in assay [4] it was above 20 µM. In addition, in assay [2], the hA1/hA2A is recorded as above 28. The hA3/hA2A in assay [2] is listed as above 8. Moreover, the “fold improvement in hA2A affinity” value in assay [2] (versus compound 5) is listed as 3 fold.

Turning to `Cc1cc(C)nc(N2CCN(C(=O)CCCc3c[nH]c4ccccc34)CC2)n1` [Compound 8, 1‐[4‐(4,6‐Dimethylpyrimidin‐2‐yl)piperazin‐1‐yl]‐4‐(1H‐indol‐3‐yl)butan‐1‐one], the inhibition constant Ki in assay [2] was above 100 µM; in assay [4] it was above 20 µM.

As to `Cc1cc(C)nc(N2CCN(C(=O)Cc3c(C)[nH]c4c(F)cc(Br)cc34)CC2)n1` [Compound 17, 2‐(5‐Bromo‐7‐fluoro‐2‐methyl‐1H‐indol‐3‐yl)‐1‐[4‐(4,6-dimethylpyrimidin‐2‐yl)piperazin‐1‐yl]ethan‐1‐one], the inhibition constant Ki in assay [1] is above 100 µM; in assay [2], above 100 µM; in assay [3], above 100 µM; in assay [4], above 20 µM.
